Common to all, as to experiment: R-SAT selectivity profile of 26HCH16D
Test [1] addresses T1, D2 (Homo sapiens, UniProt P14416).
T1 construct: expressed in transfected cells; host or cells: NIH3T3, pSI vector
It counts as cell-based. On the procedure:
(§1) The functional receptor assay, Receptor Selection and Amplification Technology (R-SAT), was used (with minor modifications from that previously described U.S. Pat. No. 5,707,798) to screen compounds for efficacy at the 5-HT2A receptor. Briefly, NIH3T3 cells were grown in 96 well tissue culture plates to 70-80% confluence. Cells were transfected for 12-16 hours with plasmid DNAs using superfect (Qiagen Inc.) as per manufacture's protocols. R-SAT's were generally performed with 50 ng/well of receptor and 20 ng/well of Beta-galactosidase plasmid DNA. All receptor and G-protein constructs used were in the pSI mammalian expression vector (Promega Inc) as described in U.S. Pat. No. 5,707,798. The 5HT2A receptor gene was amplified by nested PCR from brain cDNA using the oligodeoxynucleotides based on the published sequence (see Saltzman et. al. Biochem. Biophys. Res. Comm. 181:1469-78 (1991)). Large-scale transfections, cells were transfected for 12-16 hours, then trypsinized and frozen in DMSO. Frozen cells were later thawed, plated at 10,000-40,000 cells per well of a 96 well plate that contained drug. With both methods, cells were then grown in a humidified atmosphere with 5% ambient CO2 for five days. Media was then removed from the plates and marker gene activity was measured by the addition of the beta-galactosidase substrate ONPG (in PBS with 5% NP-40). The resulting colorimetric reaction was measured in a spectrophotometric plate reader (Titertek Inc.) at […]. All data were analyzed using the computer program XLFit (IDBSm). Efficacy is the percent maximal repression compared to repression by a control compound (ritanserin in the case of 5HT2A). pIC50 is the negative of the log(IC50), where IC50 is the calculated concentration in Molar that produces 50% maximal repression.
(§2) R-SAT assays (as described in Example 42) were carried out with cells transfected with receptors (listed below) to determine the receptor selectivity profile for compound 26HCH16D. 5HT2A inverse agonist data (IC50 nM; % efficacy) were derived from detailed dose response curves (7 points in triplicate).

For test [2], the target named is T2, 5HT1A (Rattus norvegicus, UniProt P19327).
T2 construct: expressed in transfected cells; host or cells: NIH3T3, pSI vector
T2 sequence (P19327 1-422): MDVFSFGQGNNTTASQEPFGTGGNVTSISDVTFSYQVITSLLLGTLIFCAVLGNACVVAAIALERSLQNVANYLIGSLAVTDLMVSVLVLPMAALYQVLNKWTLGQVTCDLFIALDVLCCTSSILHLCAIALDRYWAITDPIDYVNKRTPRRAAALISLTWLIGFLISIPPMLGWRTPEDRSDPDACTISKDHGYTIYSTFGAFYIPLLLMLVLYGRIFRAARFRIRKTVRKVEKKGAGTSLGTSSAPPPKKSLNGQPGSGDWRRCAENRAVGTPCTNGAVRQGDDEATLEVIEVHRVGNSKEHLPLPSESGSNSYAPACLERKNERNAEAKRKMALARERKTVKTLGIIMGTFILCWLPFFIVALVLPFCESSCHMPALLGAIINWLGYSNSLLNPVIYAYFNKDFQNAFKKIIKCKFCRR
The test is classed as cell-based. To be noted: Antagonist; 4 doses in duplicate (3, 30, 300, 3000 nM). How it is done:
as §1, §2

In test [3] the target is T3, alpha1c/A (Homo sapiens, UniProt P35348).
T3 construct: expressed in transfected cells; host or cells: NIH3T3, pSI vector
T3 sequence (P35348 1-466): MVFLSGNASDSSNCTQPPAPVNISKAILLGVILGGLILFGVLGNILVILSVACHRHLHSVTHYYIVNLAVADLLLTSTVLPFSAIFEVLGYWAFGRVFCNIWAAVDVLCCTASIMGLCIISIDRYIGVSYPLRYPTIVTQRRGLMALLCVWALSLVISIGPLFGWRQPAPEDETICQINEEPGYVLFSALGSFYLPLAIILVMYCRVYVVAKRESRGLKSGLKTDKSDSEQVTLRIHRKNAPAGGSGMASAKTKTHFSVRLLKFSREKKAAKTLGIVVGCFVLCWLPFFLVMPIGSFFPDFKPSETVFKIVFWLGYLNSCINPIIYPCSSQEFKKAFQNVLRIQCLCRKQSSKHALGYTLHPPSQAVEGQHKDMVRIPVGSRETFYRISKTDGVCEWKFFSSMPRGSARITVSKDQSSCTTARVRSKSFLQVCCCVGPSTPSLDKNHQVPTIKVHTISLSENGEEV
The test is classed as cell-based. How it is done:
as §1, §2

The target in test [4] is T4, 5HT1E (Homo sapiens, UniProt P28566).
T4 construct: expressed in transfected cells; host or cells: NIH3T3, pSI vector
It counts as cell-based. To be noted: Agonist; 4 doses in duplicate (3, 30, 300, 3000 nM). On the procedure:
as §1, §2

In test [5] the target is T5, alpha1b/B (Mesocricetus auratus, UniProt P18841).
T5 construct: expressed in transfected cells; host or cells: NIH3T3, pSI vector
T5 sequence (P18841 1-515): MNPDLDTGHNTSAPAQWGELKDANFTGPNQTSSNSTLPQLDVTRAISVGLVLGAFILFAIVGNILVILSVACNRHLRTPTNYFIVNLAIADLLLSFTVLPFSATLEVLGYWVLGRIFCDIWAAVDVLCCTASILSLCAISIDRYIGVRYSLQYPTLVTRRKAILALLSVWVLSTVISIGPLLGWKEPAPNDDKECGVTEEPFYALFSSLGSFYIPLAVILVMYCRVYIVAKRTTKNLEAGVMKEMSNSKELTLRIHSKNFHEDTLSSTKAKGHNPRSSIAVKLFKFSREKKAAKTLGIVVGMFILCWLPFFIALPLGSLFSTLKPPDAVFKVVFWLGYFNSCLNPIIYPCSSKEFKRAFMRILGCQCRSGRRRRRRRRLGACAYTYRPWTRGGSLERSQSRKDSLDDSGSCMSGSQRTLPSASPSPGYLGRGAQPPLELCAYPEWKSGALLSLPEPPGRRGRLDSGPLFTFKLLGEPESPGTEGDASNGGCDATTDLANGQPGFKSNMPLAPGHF
The test is classed as cell-based, hamster. The settings on record: 4 doses in duplicate (3, 30, 300, 3000 nM). How it is done:
as §1, with “Frozen cells were later thawed, plated at 10,000-40,000 cells per well of a 96 well plate that contained drug. With both methods, cells were then grown in a humidified atmosphere with 5% ambient CO2 for five days.” left out, “Efficacy is the percent maximal repression compared to repression by a control compound (ritanserin in the case of 5HT2A). pIC50 is the negative of the log(IC50), where IC50 is the calculated concentration in Molar that produces 50% maximal repression.” left out

The mark [6] stands for this setting: Agonist, 4 doses in duplicate (3, 30, 300, 3000 nM).

Molecules are shown by their SMILES. Structures can show the parent of a compound that is named as a salt.

The values that follow come from patent US9296694B2, “Azacyclic compounds” (ACADIA Pharmaceuticals Inc., priority 2000, dated 2016).

T1 sequence (P14416 whole entry): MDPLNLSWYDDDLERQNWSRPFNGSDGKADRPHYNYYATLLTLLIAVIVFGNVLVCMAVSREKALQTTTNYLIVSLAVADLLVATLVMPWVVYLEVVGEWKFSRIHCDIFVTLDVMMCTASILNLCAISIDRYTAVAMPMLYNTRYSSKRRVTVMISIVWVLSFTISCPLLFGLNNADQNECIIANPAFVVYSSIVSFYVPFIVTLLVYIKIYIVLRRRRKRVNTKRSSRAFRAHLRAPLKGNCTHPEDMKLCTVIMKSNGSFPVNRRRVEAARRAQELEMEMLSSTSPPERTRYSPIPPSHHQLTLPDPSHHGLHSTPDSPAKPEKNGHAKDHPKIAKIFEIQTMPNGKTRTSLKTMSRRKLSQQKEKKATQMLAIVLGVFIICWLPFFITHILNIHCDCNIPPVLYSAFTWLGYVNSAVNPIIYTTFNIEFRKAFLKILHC
T4 sequence (P28566 whole entry): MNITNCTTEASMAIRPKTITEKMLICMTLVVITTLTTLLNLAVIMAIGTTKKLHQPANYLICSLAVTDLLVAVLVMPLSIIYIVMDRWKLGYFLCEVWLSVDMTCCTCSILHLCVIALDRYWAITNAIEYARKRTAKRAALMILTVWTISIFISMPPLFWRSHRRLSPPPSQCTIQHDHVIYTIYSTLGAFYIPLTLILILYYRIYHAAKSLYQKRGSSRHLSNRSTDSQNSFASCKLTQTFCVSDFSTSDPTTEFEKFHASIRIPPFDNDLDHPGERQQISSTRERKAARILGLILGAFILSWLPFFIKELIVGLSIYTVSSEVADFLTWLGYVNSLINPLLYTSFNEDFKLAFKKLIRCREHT

Take `Cc1ccc(CN(C(=O)NCc2ccccc2)C2CCN(Cc3ccccc3)CC2)cc1` [Compound 26HCH16D, N-((4-Methylphenyl)methyl)-N-(1-(phenylmethyl)piperidin-4-yl)-N′-phenylmethylcarbamide hydrochloride]: the Efficacy entry in test [1] (setting [6]) was “nr (nr=activity less than 30% at all doses tested (3, 30, 300, 3000 nM), therefore EC50/IC50 greater than 3000 nM))”; in test [2] it was “nr (nr=activity less than 30% at all doses tested (3, 30, 300, 3000 nM), therefore EC50/IC50 greater than 3000 nM))”; in test [3] (setting [6]) it was “nr (nr=activity less than 30% at all doses tested (3, 30, 300, 3000 nM), therefore EC50/IC50 greater than 3000 nM))”; in test [4], “nr (nr=activity less than 30% at all doses tested (3, 30, 300, 3000 nM), therefore EC50/IC50 greater than 3000 nM))”; in test [5] (Agonist), “nr (nr=activity less than 30% at all doses tested (3, 30, 300, 3000 nM), therefore EC50/IC50 greater than 3000 nM))”; in test [5] (Antagonist), “nr (nr=activity less than 30% at all doses tested (3, 30, 300, 3000 nM), therefore EC50/IC50 greater than 3000 nM))”. For the same molecule, the “initial concentration at which at least 30% efficacy observed” value in test [1] (Antagonist, 4 dose profiling) was determined as 3000 nM; in test [3] (Antagonist, 4 dose profiling) it was 3000 nM.
